Test results published in ChEMBL document CHEMBL1145719, “Rigidone, a sesquiterpene o-quinone from the gorgonian Pseudopterogorgia rigida” (J Nat Prod, 1997).

Target: T1, Macrophage scavenger receptor types I and II (Homo sapiens, UniProt P21757)
T1 sequence (P21757 whole entry): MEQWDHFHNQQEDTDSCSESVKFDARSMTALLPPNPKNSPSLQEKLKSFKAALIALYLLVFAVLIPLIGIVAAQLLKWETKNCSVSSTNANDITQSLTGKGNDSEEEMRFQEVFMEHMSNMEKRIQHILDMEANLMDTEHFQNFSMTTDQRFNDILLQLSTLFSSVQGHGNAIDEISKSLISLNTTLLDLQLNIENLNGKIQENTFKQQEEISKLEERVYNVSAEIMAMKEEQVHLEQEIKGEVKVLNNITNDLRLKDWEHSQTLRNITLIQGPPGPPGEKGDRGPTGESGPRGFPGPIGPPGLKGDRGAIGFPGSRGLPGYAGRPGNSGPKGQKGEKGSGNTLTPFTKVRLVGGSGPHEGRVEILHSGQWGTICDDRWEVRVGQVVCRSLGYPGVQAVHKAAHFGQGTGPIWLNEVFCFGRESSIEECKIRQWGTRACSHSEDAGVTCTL
Test: Inhibition of full-length MSR1 transfected in HEK293 cells by fluorimetry
Format: cell-based

IC50	Structure (SMILES)
71 µM	CC(C)=CCC[C@H](C)c1c(O)c(O)c(C)c2nc3ccccc3nc12
5.6 µM	CC(C)=CCC[C@H](C)C1=C(O)C=C(C)C(=O)C1=O [RIGIDONE]
